These results are taken from patent publication US9657014B2, “Substituted 1,6-naphthyridines” (Hoffmann-La Roche Inc., priority 2012, dated 2017).

The first assay deals with human embryonic stem cell derived neural stem cells (NSCs). In words: Neural stem cell proliferation assay (neurogenesis assay). It is filed as cell-based. The conditions noted are these: Homo sapiens, Neural stem cell, 96 h; Table 1, novel compounds; concentration at which 150% activity of control (100%) is reached; ATP levels (CellTiterGlo) after 4 days incubation. In a few lines: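 NSCs derived from human ES cells by dual SMAD inhibition, seeded on polyornithin/laminin, dosed 4 h later (11 points, 8 μM to 8 nM). After 4 days at 37° C, ATP luminescence read; response = compound/medium control ×100, EC150 = concentration giving 150% of control.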
In general terms: In ATP-based viability assays light output follows the ATP content of the culture.
`NC(=O)c1ccc2cncc(-c3cccc(OCC(F)(F)F)c3)c2n1` [Example 166, 8-(3-(2,2,2-Trifluoroethoxyl)phenyl)-1,6-naphthyridine-2-carboxamide] yielded an EC (150% of control) of 0.06 µM. Still for that read-out and setting: as for `NC(=O)c1ccc2cncc(-c3cccc(Cl)c3)c2n1` [Example 167, 8-(3-Chlorophenyl)-1,6-naphthyridine-2-carboxamide], the figure is 0.09 µM; as for `NC(=O)c1ccc2cncc(-c3ccccc3Cl)c2n1` [Example 168, 8-(2-Chlorophenyl)-1,6-naphthyridine-2-carboxamide], 0.15 µM; as for `NC(=O)c1ccc2cncc(-c3ccc(Cl)c(F)c3)c2n1` [Example 169, 8-(4-Chloro-3-fluorophenyl)-1,6-naphthyridine-2-carboxamide], 0.03 µM. As to `CC(NC(=O)c1ccc2cncc(-c3ccc(Cl)c(F)c3)c2n1)C(C)(C)O` (stereo not drawn) [Example 170, 8-(4-Chloro-3-fluorophenyl)-N-(3-hydroxy-3-methylbutan-2-yl)-1,6-naphthyridine-2-carboxamide], the EC (150% of control) is 0.25 µM. Take `CC(NC(=O)c1ccc2cncc(-c3ccccc3Cl)c2n1)C(C)(C)O` (stereo not drawn) [Example 171, 8-(2-Chlorophenyl)-N-(3-hydroxy-3-methylbutan-2-yl)-1,6-naphthyridine-2-carboxamide]: the EC (150% of control) amounted to 0.12 µM. Still for that read-out and setting: the figure for `CC(NC(=O)c1ccc2cncc(-c3ccc(Cl)cc3Cl)c2n1)C(C)(C)O` (stereo not drawn) [Example 172, 8-(2,4-Dichlorophenyl)-N-(3-hydroxy-3-methylbutan-2-yl)-1,6-naphthyridine-2-carboxamide] is 0.5 µM; for `CC(NC(=O)c1ccc2cncc(-c3cc(F)c(F)c(F)c3)c2n1)C(C)(C)O` (stereo not drawn) [Example 173, N-(3-Hydroxy-3-methylbutan-2-yl)-8-(3,4,5-trifluorophenyl)-1,6-naphthyridine-2-carboxamide] it is 0.9 µM.

For `CC(NC(=O)c1ccc2cncc(-c3ccc(Cl)nc3)c2n1)C(C)(C)O` (stereo not drawn) [Example 174, 8-(6-Chloropyridin-3-yl)-N-(3-hydroxy-3-methylbutan-2-yl)-1,6-naphthyridine-2-carboxamide], the EC (150% of control) was determined as 0.61 µM.

For the compound `CC(NC(=O)c1ccc2cncc(-c3cccc(Cl)n3)c2n1)C(C)(C)O` (stereo not drawn) [Example 175, 8-(6-Chloropyridin-2-yl)-N-(3-hydroxy-3-methylbutan-2-yl)-1,6-naphthyridine-2-carboxamide], the EC (150% of control) stood at 1.03 µM. For the compound `Cc1ccccc1-c1cncc2ccc(C(=O)NC(C)C(C)(C)O)nc12` (stereo not drawn) [Example 176, N-(3-Hydroxy-3-methylbutan-2-yl)-8-o-tolyl-1,6-naphthyridine-2-carboxamide], the EC (150% of control) was determined as 0.28 µM.

Staying with this assay, now noted: Homo sapiens, Neural stem cell, 96 h; Table 2, known compounds; concentration at which 150% activity of control (100%) is reached; ATP levels (CellTiterGlo) after 4 days incubation.
Consider `COc1ccc(-c2cncc3ccc(C(=O)NCCCn4ccnc4)nc23)cc1` [Example 179, 8-(4-Methoxy-phenyl)-[1,6]naphthyridine-2-carboxylic acid (3-imidazol-1-yl-propyl)-amide], for which the EC (150% of control) was 0.7 µM.

In turn, `COc1ccc(-c2cncc3ccc(C(=O)NCc4cnc(C)cn4)nc23)cc1` [Example 180, 8-(4-Methoxy-phenyl)-[1,6]naphthyridine-2-carboxylic acid (5-methyl-pyrazin-2-ylmethyl)-amide] yielded an EC (150% of control) of 1.26 µM. `COc1ccc(-c2cncc3ccc(C(=O)NCc4ccncc4)nc23)cc1` [Example 181, 8-(4-Methoxy-phenyl)-[1,6]naphthyridine-2-carboxylic acid (pyridin-4-ylmethyl)-amide]: the EC (150% of control) came to 0.04 µM. On the same count and under the same terms, the figure for `COc1ccc(-c2cncc3ccc(C(=O)N4CCOCC4)nc23)cc1` [Example 182, [8-(4-Methoxy-phenyl)-[1,6]naphthyridin-2-yl]-morpholin-4-yl-methanone] is 5.4 µM; for `COc1ccc(-c2cncc3ccc(C(=O)N4CCCCC4)nc23)cc1` [Example 183, [8-(4-Methoxy-phenyl)-[1,6]naphthyridin-2-yl]-piperidin-1-yl-methanone] it is 1.25 µM; for `COc1ccc(-c2cncc3ccc(C(=O)NCc4ccccc4)nc23)cc1` [Example 184, 8-(4-Methoxy-phenyl)-[1,6]naphthyridine-2-carboxylic acid benzylamide] it is 0.16 µM.

For the compound `COc1ccc(-c2cncc3ccc(C(=O)N4CCN(c5ccccn5)CC4)nc23)cc1` [Example 185, [8-(4-Methoxy-phenyl)-[1,6]naphthyridin-2-yl]-(4-pyridin-2-yl-piperazin-1-yl)-methanone], the EC (150% of control) amounted to 0.8 µM.

Consider `COc1ccc(-c2cncc3ccc(C(=O)NCc4ccc(C(F)(F)F)nc4)nc23)cc1` [Example 186, 8-(4-Methoxy-phenyl)-[1,6]naphthyridine-2-carboxylic acid (6-trifluoromethyl-pyridin-3-ylmethyl)-amide], for which the EC (150% of control) is 0.67 µM. Compound `COc1ccc(-c2cncc3ccc(C(=O)N4CCN(Cc5nc(OC)cc(OC)n5)CC4)nc23)cc1` [Example 187, [4-(4,6-Dimethoxy-pyrimidin-2-ylmethyl)-piperazin-1-yl]-[8-(4-methoxy-phenyl)-[1,6]naphthyridin-2-yl]-methanone] yielded an EC (150% of control) of 0.71 µM. Compound `O=C(NCCCN1CCOCC1)c1ccc2cncc(-c3ccccc3)c2n1` [Example 188, 8-Phenyl-[1,6]naphthyridine-2-carboxylic acid (3-morpholin-4-yl-propyl)-amide] yielded an EC (150% of control) of 6.8 µM. Compound `O=C(NCCCn1ccnc1)c1ccc2cncc(-c3ccccc3)c2n1` [Example 189, 8-Phenyl-[1,6]naphthyridine-2-carboxylic acid (3-imidazol-1-yl-propyl)-amide] gave an EC (150% of control) of 1.2 µM. Compound `Cc1cnc(CNC(=O)c2ccc3cncc(-c4ccccc4)c3n2)cn1` [Example 190, 8-Phenyl-[1,6]naphthyridine-2-carboxylic acid (5-methyl-pyrazin-2-ylmethyl)-amide] showed an EC (150% of control) of 0.5 µM. `O=C(NCc1ccccc1)c1ccc2cncc(-c3ccccc3)c2n1` [Example 191, 8-Phenyl-[1,6]naphthyridine-2-carboxylic acid benzylamide]: the EC (150% of control) was determined as 0.44 µM. In the case of `O=C(c1ccc2cncc(-c3ccccc3)c2n1)N1CCN(c2ccccn2)CC1` [Example 192, (8-Phenyl-[1,6]naphthyridin-2-yl)-(4-pyridin-2-yl-piperazin-1-yl)-methanone], the EC (150% of control) was found to be 1.4 µM. As to `O=C(NC1CCN(Cc2ccccc2)CC1)c1ccc2cncc(-c3ccccc3)c2n1` [Example 193, 8-Phenyl-[1,6]naphthyridine-2-carboxylic acid (1-benzyl-piperidin-4-yl)-amide], the EC (150% of control) worked out at 1.9 µM.

Consider `COc1ccccc1CNC(=O)c1ccc2cncc(-c3ccccc3)c2n1` [Example 194, 8-Phenyl-[1,6]naphthyridine-2-carboxylic acid 2-methoxy-benzylamide], for which the EC (150% of control) came to 0.73 µM.

Compound `CS(=O)(=O)c1ccc(CNC(=O)c2ccc3cncc(-c4ccccc4)c3n2)cc1` [Example 195, 8-Phenyl-[1,6]naphthyridine-2-carboxylic acid 4-methanesulfonyl-benzylamide] displayed an EC (150% of control) of 4 µM. In turn, `O=C(NCc1ccc(C(F)(F)F)nc1)c1ccc2cncc(-c3ccccc3)c2n1` [Example 196, 8-Phenyl-[1,6]naphthyridine-2-carboxylic acid (6-trifluoromethyl-pyridin-3-ylmethyl)-amide] displayed an EC (150% of control) of 3.7 µM. `O=C(NCCCn1ccnc1)c1ccc2cncc(-c3ccsc3)c2n1` [Example 197, 8-Thiophen-3-yl-[1,6]naphthyridine-2-carboxylic acid (3-imidazol-1-yl-propyl)-amide] displayed an EC (150% of control) of 1.98 µM. On the same count and under the same terms, as for `O=C(NCc1ccncc1)c1ccc2cncc(-c3ccsc3)c2n1` [Example 198, 8-Thiophen-3-yl-[1,6]naphthyridine-2-carboxylic acid (pyridin-4-ylmethyl)-amide], the figure is 0.12 µM; as for `O=C(NCc1ccccc1)c1ccc2cncc(-c3ccsc3)c2n1` [Example 199, 8-Thiophen-3-yl-[1,6]naphthyridine-2-carboxylic acid benzylamide], 0.1 µM; as for `O=C(c1ccc2cncc(-c3ccsc3)c2n1)N1CCN(c2ccccn2)CC1` [Example 200, (4-Pyridin-2-yl-piperazin-1-yl)-(8-thiophen-3-yl-[1,6]naphthyridin-2-yl)-methanone], 0.8 µM.

`O=C(NCc1ccc(Cl)cc1)c1ccc2cncc(-c3ccsc3)c2n1` [Example 201, 8-Thiophen-3-yl-[1,6]naphthyridine-2-carboxylic acid 4-chloro-benzylamide] came in with an EC (150% of control) of 0.8 µM. In turn, `COc1ccccc1CNC(=O)c1ccc2cncc(-c3ccsc3)c2n1` [Example 202, 8-Thiophen-3-yl-[1,6]naphthyridine-2-carboxylic acid 2-methoxy-benzylamide] had an EC (150% of control) of 0.15 µM. Same read-out and setting: as for `O=C(NCc1ccc(C(F)(F)F)nc1)c1ccc2cncc(-c3ccsc3)c2n1` [Example 203, 8-Thiophen-3-yl-[1,6]naphthyridine-2-carboxylic acid (6-trifluoromethyl-pyridin-3-ylmethyl)-amide], the figure is 1.5 µM; as for `COCCNC(=O)c1ccc2cncc(-c3ccccc3)c2n1` [Example 204, 8-Phenyl-[1,6]naphthyridine-2-carboxylic acid (2-methoxy-ethyl)-amide], 0.2 µM; as for `O=C(c1ccc2cncc(-c3cc4ccccc4o3)c2n1)N1CCCCC1` [Example 205, (8-Benzofuran-2-yl-[1,6]naphthyridin-2-yl)-piperidin-1-yl-methanone], 3.5 µM. Compound `NC(=O)c1ccc2cncc(Br)c2n1` [Example 206, 8-Bromo-1,6-naphthyridine-2-carboxamide] came in with an EC (150% of control) of 0.8 µM.
